{"source": "patent US20060156419A1", "about": "“Mouse model for autoimmune disorders” (THE WISTAR INSTITUTE of ANATOMY and BIOLOGY, priority 2002, published 2006)", "key": {"TS1(SW) T cell receptor [1]": {"test_system": "TS1(SW) T cell receptor", "assay": "Proliferation of TS1(SW) CD4+ T cells in response to graded doses of peptide", "format": "cell-based, mouse", "conditions": "for EC50: read-out: half maximal stimulation"}, "TS1 T cell receptor": {"test_system": "TS1 T cell receptor", "assay": "Proliferation of TS1 CD4+ T cells in response to graded doses of peptide", "format": "cell-based, mouse"}, "TS1(SW) T cell receptor [2]": {"test_system": "TS1(SW) T cell receptor", "conditions": "Jordan et al, 2001; cited from earlier work"}}, "note": "Read-outs that look alike come from different tables or passages of the source.", "data": [{"sequence": "SFEKFEIFPKT [S1(SW) peptide]", "values": [{"measurement": "EC50", "setting": "TS1(SW) T cell receptor [1]; CD4+ T cells of TS1(SW) TCR transgenic mice, proliferation, FIG. 7", "result": "~50", "unit": "nM"}, {"measurement": "binding affinity of TS1(SW) T cell receptor (in words)", "setting": "TS1(SW) T cell receptor [1]; FIG. 7B", "result": "high affinity"}, {"measurement": "binding affinity of TS1 T cell receptor (in words)", "setting": "TS1 T cell receptor; FIG. 7A", "result": "low affinity"}]}, {"sequence": "SFERFEIFPKE [S1 peptide]", "values": [{"measurement": "affinity for the TS1(SW) TCR, fold lower than for S1(SW) peptide", "setting": "TS1(SW) T cell receptor [1]", "result": "about 100 fold"}, {"measurement": "binding affinity of TS1(SW) T cell receptor (in words)", "setting": "TS1(SW) T cell receptor [1]", "result": "low affinity"}, {"measurement": "fold higher concentrations of S1 peptide needed to reach half-maximal stimulation", "setting": "TS1(SW) T cell receptor [1]", "result": "around 30 fold"}, {"measurement": "EC50", "setting": "TS1(SW) T cell receptor [1]", "result": "> 1000", "unit": "nM"}, {"measurement": "binding affinity of TS1 T cell receptor (in words)", "setting": "TS1 T cell receptor", "result": "high affinity"}, {"measurement": "affinity of TS1(SW) TCR for S1 peptide, fold lower than that of the TS1 TCR", "setting": "TS1(SW) T cell receptor [2]", "result": "approximately 100 fold"}]}]}
